Test results published in US20040156869A1, “2-substituted quinazolin-4-ylamine analogues” (Neurogen Corporation, priority 2002, published 2004).
pKi: −log10 of the molar value.

Target: human capsaicin receptor (VR1) (Homo sapiens, UniProt Q8NER1)
Test: Capsaicin receptor binding assay ([3H]RTX competition, VR1-transfected HEK293 membranes)

Chain of human capsaicin receptor (VR1) (Q8NER1 whole entry): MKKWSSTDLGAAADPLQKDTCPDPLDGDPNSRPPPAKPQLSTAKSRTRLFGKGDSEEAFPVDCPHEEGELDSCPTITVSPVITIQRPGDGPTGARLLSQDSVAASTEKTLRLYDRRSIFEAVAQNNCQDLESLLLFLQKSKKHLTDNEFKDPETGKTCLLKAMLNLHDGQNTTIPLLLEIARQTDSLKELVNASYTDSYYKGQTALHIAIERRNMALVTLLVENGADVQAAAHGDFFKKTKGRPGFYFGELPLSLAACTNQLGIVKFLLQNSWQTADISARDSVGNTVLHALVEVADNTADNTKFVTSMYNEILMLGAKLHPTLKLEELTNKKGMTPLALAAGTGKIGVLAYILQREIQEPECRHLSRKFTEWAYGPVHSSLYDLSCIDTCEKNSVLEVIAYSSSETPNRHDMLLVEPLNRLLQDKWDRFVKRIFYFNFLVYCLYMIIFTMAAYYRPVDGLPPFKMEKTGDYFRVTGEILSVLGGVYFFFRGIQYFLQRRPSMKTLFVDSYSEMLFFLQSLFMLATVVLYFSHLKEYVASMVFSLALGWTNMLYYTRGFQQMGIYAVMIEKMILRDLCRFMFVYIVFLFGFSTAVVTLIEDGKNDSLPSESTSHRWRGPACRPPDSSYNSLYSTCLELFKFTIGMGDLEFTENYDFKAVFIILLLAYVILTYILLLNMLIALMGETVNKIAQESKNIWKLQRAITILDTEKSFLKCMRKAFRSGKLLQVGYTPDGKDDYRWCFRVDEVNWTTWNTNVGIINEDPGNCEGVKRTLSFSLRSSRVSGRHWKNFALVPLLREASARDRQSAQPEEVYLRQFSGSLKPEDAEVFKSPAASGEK

| pKi | Compound |
| --- | --- |
| > 6.00 | Cc1cccc(-c2ccc3c(Nc4ccc(C(C)(C)C)cc4)nc(CN4C[C@@H](C)O[C@@H](C)C4)nc3c2)n1 [Compound 637, (4-tert-Butyl-phenyl)-[2-(2,6-dimethyl-morpholin-4-ylmethyl)-7-(6-methyl-pyridin-2-yl)-quinazolin-4-yl]amine (cis)] |
| > 6.00 | COc1ccccc1-c1ccc2c(Nc3ccc(C(F)(F)F)cc3)nc(CN3C[C@@H](C)O[C@@H](C)C3)nc2c1 [Compound 638, [2-(2,6-Dimethyl-morpholin-4-ylmethyl)-7-(2-methoxy-phenyl)-quinazolin-4-yl]-(4-trifluoromethyl-phenyl)-amine (cis)] |
| > 6.00 | CC(=O)c1ccccc1-c1ccc2c(Nc3ccc(C(F)(F)F)cc3)nc(CN3C[C@@H](C)O[C@@H](C)C3)nc2c1 [Compound 639, 1-{2-[2-(2,6-Dimethyl-morpholin-4-ylmethyl)-4-(4-trifluoromethyl-phenylamino)-quinazolin-7-yl]-phenyl}-ethanone (cis)] |
| > 6.00 | CC(C)c1ccc(Nc2nc(CN3C[C@H](C)O[C@@H](C)C3)nc3cc(-c4ncccc4C(F)(F)F)ccc23)cc1 [Compound 640, (S,S)-[2-(2,6-Dimethyl-morpholin-4-ylmethyl)-7-(3-trifluoromethyl-pyridin-2-yl)-quinazolin-4-yl]-(4-isopropyl-phenyl)-amine] |
| > 6.00 | CCc1ccc(Nc2nc(CN3C[C@H](C)O[C@@H](C)C3)nc3cc(-c4ncccc4C(F)(F)F)ccc23)cc1 [Compound 641, (S,S)-[2-(2,6-Dimethyl-morpholin-4-ylmethyl)-7-(3-trifluoromethyl-pyridin-2-yl)-quinazolin-4-yl]-(4-ethyl-phenyl)-amine] |
| > 6.00 | C[C@H]1CN(Cc2nc(Nc3ccc(Cl)cc3)c3ccc(-c4ncccc4C(F)(F)F)cc3n2)C[C@H](C)O1 [Compound 642, (S,S)-(4-Chloro-phenyl)-[2-(2,6-dimethyl-morpholin-4-ylmethyl)-7-(3-trifluoromethyl-pyridin-2-yl)-quinazolin-4-yIl]amine] |
| > 6.00 | CC(C)S(=O)(=O)c1ccc(Nc2nc(CN3C[C@H](C)O[C@@H](C)C3)nc3cc(-c4ncccc4C(F)(F)F)ccc23)cc1 [Compound 643, (S,S)-[2-(2,6-Dimethyl-morpholin-4-ylmethyl)-7-(3-trifluoromethyl-pyridin-2-yl)-quinazolin-4-yl]-[4-(propane-2-sulfonyl)-phenyl]-amine] |
| > 6.00 | C[C@H]1CN(Cc2nc(Nc3ccc(Cl)cc3)c3ccc(-c4ncccc4Cl)cc3n2)C[C@H](C)O1 [Compound 644, (S,S)-(4-Chloro-phenyl)-[7-(3-chloro-pyridin-2-yl)-2-(2,6-dimethyl-morpholin-4-ylmethyl)-quinazolin-4-yl]-amine] |
| > 6.00 | CC(C)S(=O)(=O)c1ccc(Nc2nc(CN3C[C@H](C)O[C@@H](C)C3)nc3cc(-c4ncccc4Cl)ccc23)cc1 [Compound 645, (S,S)-[7-(3-Chloro-pyridin-2-yl)-2-(2,6-dimethyl-morpholin-4-ylmethyl)-quinazolin-4-yl]-[4-(propane-2-sulfonyl)-phenyl]-amine] |
| > 6.00 | CC(C)S(=O)(=O)c1ccc(Nc2nc(CN3CCO[C@@H](C)C3)nc3cc(-c4ncccc4Cl)ccc23)cc1 [Compound 646, (S)-[7-(3-Chloro-pyridin-2-yl)-2-(2-methyl-morpholin-4-ylmethyl)-quinazolin-4-yl]-[4-(propane-2-sulfonyl)-phenyl]-amine] |
| > 6.00 | C[C@H]1CN(Cc2nc(Nc3ccc(C(C)(C)C)cc3)c3ccc(-c4ncccc4Cl)cc3n2)CCO1 [Compound 647, (S)-(4-tert-Butyl-phenyl)-[7-(3-chloro-pyridin-2-yl)-2-(2-methyl-morpholin-4-ylmethyl)-quinazolin-4-yl]-amine] |
| > 6.00 | CC(C)c1ccc(Nc2nc(CN3CCO[C@@H](C)C3)nc3cc(-c4ncccc4Cl)ccc23)cc1 [Compound 648, (S)-[7-(3-Chloro-pyridin-2-yl)-2-(2-methyl-morpholin-4-ylmethyl)-quinazolin-4-yl]-(4-isopropyl-phenyl)-amine] |
